In patent publication US9936701B2, “Herbicidal compounds” (Syngenta Participations AG, priority 2013, dated 2018):

Assays:
[1] = tested on: a variety of test species; assay: Post-emergence herbicidal activity (glasshouse, sprayed after 8 days cultivation, evaluated after 13 days); format: in vivo; design: key: 5=total damage to plant; 0=no damage to plant; conditions: rate 1000 g/Ha, scale 0-5
Method: (§1) Seeds of a variety of test species were sown in standard soil in pots. After 8 days cultivation (post-emergence) under controlled conditions in a glasshouse (at 24/16° C., day/night; 14 hours light; 65% humidity), the plants were sprayed with an aqueous spray solution derived from the formulation of the technical active ingredient in acetone/water (50:50) solution containing 0.5% Tween 20 (polyoxyethelyene sorbitan monolaurate, CAS RN 9005-64-5). The test plants were then grown in a glasshouse under controlled conditions (at 24/16° C., day/night; 14 hours light; 65% humidity) and watered twice daily. After 13 days, the test was evaluated (5=total damage to plant; 0=no damage to plant).

[2] = tested on: a variety of test species; assay: Pre-emergence herbicidal activity (glasshouse, sprayed one day after sowing, evaluated after 13 days); format: in vivo; design: key: 5=total damage to plant; 0=no damage to plant; conditions: application pre-emergence, rate 1000 g/Ha, scale 0-5
Method: as §1, with “After” for “After 8 days”, “for one day (pre-emergence)” for “(post-emergence)”

CCSC(=O)OC1C(C)=C(Cl)C(=O)N1c1cc(C(C)(C)C)on1 (stereo not shown) [A78]
2: Pre-emergence herbicidal damage score, ALOMY [2] | Pre-emergence herbicidal damage score, ZEAMX [2]
4: ZEAMX (Zea mays) damage score, application post-emergence [1]
5: ABUTH (Abutilon theophrasti) damage score, application post-emergence [1] | ALOMY (Alopecurus myosuroides) damage score, application post-emergence [1] | AMARE (Amaranthus retroflexus) damage score, application post-emergence [1] | ECHCG (Echinochloa crus-galli) damage score, application post-emergence [1] | SETFA (Setaria faberi) damage score, application post-emergence [1] | Pre-emergence herbicidal damage score, ABUTH [2] | Pre-emergence herbicidal damage score, AMARE [2] | Pre-emergence herbicidal damage score, ECHCG [2] | Pre-emergence herbicidal damage score, SETFA [2]

COC(=O)OC1C(C)=C(Cl)C(=O)N1c1cc(C(C)(C)C)on1 (stereo not shown) [A81]
4: ZEAMX (Zea mays) damage score, application post-emergence [1] | Pre-emergence herbicidal damage score, ALOMY [2]
5: ABUTH (Abutilon theophrasti) damage score, application post-emergence [1] | ALOMY (Alopecurus myosuroides) damage score, application post-emergence [1] | AMARE (Amaranthus retroflexus) damage score, application post-emergence [1] | ECHCG (Echinochloa crus-galli) damage score, application post-emergence [1] | SETFA (Setaria faberi) damage score, application post-emergence [1] | Pre-emergence herbicidal damage score, ABUTH [2] | Pre-emergence herbicidal damage score, AMARE [2] | Pre-emergence herbicidal damage score, ECHCG [2] | Pre-emergence herbicidal damage score, SETFA [2]
3: Pre-emergence herbicidal damage score, ZEAMX [2]

CC1=C(Cl)C(=O)N(c2cc(C(C)(C)C)on2)C1OC(=O)SCC(C)C (stereo not shown) [A82]
2: AMARE (Amaranthus retroflexus) damage score, application post-emergence [1] | ECHCG (Echinochloa crus-galli) damage score, application post-emergence [1] | SETFA (Setaria faberi) damage score, application post-emergence [1]
3: Pre-emergence herbicidal damage score, AMARE [2]
0: Pre-emergence herbicidal damage score, ALOMY [2] | Pre-emergence herbicidal damage score, ZEAMX [2]
1: ZEAMX (Zea mays) damage score, application post-emergence [1] | Pre-emergence herbicidal damage score, ABUTH [2] | Pre-emergence herbicidal damage score, ECHCG [2] | Pre-emergence herbicidal damage score, SETFA [2]

C=COC(=O)OC1C(C)=C(Cl)C(=O)N1c1cc(C(C)(C)C)on1 (stereo not shown) [A83]
5: ABUTH (Abutilon theophrasti) damage score, application post-emergence [1] | ALOMY (Alopecurus myosuroides) damage score, application post-emergence [1] | AMARE (Amaranthus retroflexus) damage score, application post-emergence [1] | ECHCG (Echinochloa crus-galli) damage score, application post-emergence [1] | SETFA (Setaria faberi) damage score, application post-emergence [1] | Pre-emergence herbicidal damage score, ABUTH [2] | Pre-emergence herbicidal damage score, AMARE [2] | Pre-emergence herbicidal damage score, ECHCG [2] | Pre-emergence herbicidal damage score, SETFA [2]
4: ZEAMX (Zea mays) damage score, application post-emergence [1] | Pre-emergence herbicidal damage score, ALOMY [2] | Pre-emergence herbicidal damage score, ZEAMX [2]

CC#CCOC(=O)OC1C(C)=C(Cl)C(=O)N1c1cc(C(C)(C)C)on1 (stereo not shown) [A85]
5: ABUTH (Abutilon theophrasti) damage score, application post-emergence [1] | ALOMY (Alopecurus myosuroides) damage score, application post-emergence [1] | AMARE (Amaranthus retroflexus) damage score, application post-emergence [1] | ECHCG (Echinochloa crus-galli) damage score, application post-emergence [1] | SETFA (Setaria faberi) damage score, application post-emergence [1] | Pre-emergence herbicidal damage score, ABUTH [2] | Pre-emergence herbicidal damage score, AMARE [2] | Pre-emergence herbicidal damage score, ECHCG [2] | Pre-emergence herbicidal damage score, SETFA [2]
3: Pre-emergence herbicidal damage score, ZEAMX [2]
4: ZEAMX (Zea mays) damage score, application post-emergence [1] | Pre-emergence herbicidal damage score, ALOMY [2]

COc1ccc(OC(=O)OC2C(C)=C(Cl)C(=O)N2c2cc(C(C)(C)C)on2)cc1 (stereo not shown) [A86]
5: AMARE (Amaranthus retroflexus) damage score, application post-emergence [1] | Pre-emergence herbicidal damage score, AMARE [2]
1: Pre-emergence herbicidal damage score, ZEAMX [2]
3: ALOMY (Alopecurus myosuroides) damage score, application post-emergence [1] | SETFA (Setaria faberi) damage score, application post-emergence [1] | Pre-emergence herbicidal damage score, ABUTH [2] | Pre-emergence herbicidal damage score, ALOMY [2]
0: ZEAMX (Zea mays) damage score, application post-emergence [1]
2: ABUTH (Abutilon theophrasti) damage score, application post-emergence [1] | ECHCG (Echinochloa crus-galli) damage score, application post-emergence [1] | Pre-emergence herbicidal damage score, ECHCG [2] | Pre-emergence herbicidal damage score, SETFA [2]
